Assay results: PubChem BioAssay AID1963827 (Molecular Pharmacology Branch, DTP, NCI, 2024)
pIC50: −log10 of the molar value.

System: 994946-033-R-J1-PDC complex spheroid viability
Experiment: Anticancer human tumor 994946-033-R-J1-PDC patient-derived melanoma cell line growth inhibition [POLQ]
Conditions: for pIC50: curve of first compound; for viability, T/C: stronger effect = lower value; active means viability on the fitted dose curve at most 10% of control; inactive means the rest
Summary of the method: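 Growth inhibition in 3D: complex spheroids (tumor PDC, HUVEC, MSC) treated with POLQ inhibitor combinations; where Cmax unknown, highest tested concentration 10 microM, except SN-38 at 1 microM.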

[1] = second compound 0.0316 µM, first compound 0.0316 µM
[2] = second compound 0.0316 µM, first compound 0.1 µM
[3] = second compound 0.0316 µM, first compound 0.316 µM
[4] = second compound 0.0316 µM, first compound 1 µM
[5] = second compound 0.0316 µM, first compound 3.16 µM
[6] = second compound 0.0316 µM, first compound 10 µM
[7] = second compound 0.1 µM, first compound 0.0316 µM
[8] = second compound 0.1 µM, first compound 0.1 µM
[9] = second compound 0.1 µM, first compound 0.316 µM
[10] = second compound 0.1 µM, first compound 1 µM
[11] = second compound 0.1 µM, first compound 3.16 µM
[12] = second compound 0.1 µM, first compound 10 µM
[13] = second compound 0.316 µM, first compound 0.0316 µM
[14] = second compound 0.316 µM, first compound 0.1 µM
[15] = second compound 0.316 µM, first compound 0.316 µM
[16] = second compound 0.316 µM, first compound 1 µM
[17] = second compound 0.316 µM, first compound 3.16 µM
[18] = second compound 0.316 µM, first compound 10 µM
[19] = second compound 1 µM, first compound 0.0316 µM
[20] = second compound 1 µM, first compound 0.1 µM
[21] = second compound 1 µM, first compound 0.316 µM
[22] = second compound 1 µM, first compound 1 µM
[23] = second compound 1 µM, first compound 3.16 µM
[24] = second compound 1 µM, first compound 10 µM
[25] = second compound 3.16 µM, first compound 0.0316 µM
[26] = second compound 3.16 µM, first compound 0.1 µM
[27] = second compound 3.16 µM, first compound 0.316 µM
[28] = second compound 3.16 µM, first compound 1 µM
[29] = second compound 3.16 µM, first compound 3.16 µM
[30] = second compound 3.16 µM, first compound 10 µM
[31] = second compound 10 µM, first compound 0.0316 µM
[32] = second compound 10 µM, first compound 0.1 µM
[33] = second compound 10 µM, first compound 0.316 µM
[34] = second compound 10 µM, first compound 1 µM
[35] = second compound 10 µM, first compound 3.16 µM
[36] = second compound 10 µM, first compound 10 µM
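Further: spheroids exposed to drugs for 7 days.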
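Wherever viability, T/C is given: 100% = DMSO vehicle treated spheroids.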

C#Cc1c(F)ccc2cc(O)cc(-c3ncc4c(N5CC6CCC(C5)N6)nc(OCC56CCCN5CC(F)C6)nc4c3F)c12 (stereo not given) + Cc1cccc(N(C)C(=O)C2C(O)CCN2c2nc(C)cc(C(F)(F)F)c2C#N)c1
active: viability, T/C [24] 9.05% | viability, T/C [30] 5.59% | viability, T/C [36] 4.03%
5.14: pIC50 (second compound 0.1 µM)
5.28: pIC50 (second compound 1 µM)
5.32: pIC50 (second compound 3.16 µM)
5.30: pIC50 (second compound 0.0316 µM)
5.36: pIC50 (second compound 0.316 µM)
5.23: pIC50 (second compound 10 µM)
inactive: viability, T/C [1] 97.6% | viability, T/C [2] 103% | viability, T/C [3] 101% | viability, T/C [4] 93.8% | viability, T/C [5] 76.5% | viability, T/C [6] 12% | viability, T/C [7] 77% | viability, T/C [8] 112% | viability, T/C [9] 101% | viability, T/C [10] 106% | viability, T/C [11] 103% | viability, T/C [12] 30.7% | viability, T/C [13] 119% | viability, T/C [14] 102% | viability, T/C [15] 114% | viability, T/C [16] 82% | viability, T/C [17] 64.7% | viability, T/C [18] 18.1% | viability, T/C [19] 121% | viability, T/C [20] 99.5% | viability, T/C [21] 105% | viability, T/C [22] 107% | viability, T/C [23] 82.7% | viability, T/C [25] 106% | viability, T/C [26] 95.3% | viability, T/C [27] 79.1% | viability, T/C [28] 82.8% | viability, T/C [29] 78.3% | viability, T/C [31] 111% | viability, T/C [32] 104% | viability, T/C [33] 97.7% | viability, T/C [34] 95.9% | viability, T/C [35] 114%

CC1COCCN1c1cc(C2(O)CC3CCC(C2)O3)c2cnn(-c3ccn[nH]3)c2n1 (stereo not given) + Cc1cccc(N(C)C(=O)C2C(O)CCN2c2nc(C)cc(C(F)(F)F)c2C#N)c1
active: viability, T/C [11] 12% | viability, T/C [12] 4% | viability, T/C [17] 12.7% | viability, T/C [18] 2.62% | viability, T/C [23] 12.5% | viability, T/C [24] 3.16% | viability, T/C [36] 5.05%
7.42: pIC50 (second compound 0.1 µM)
> 7.50: pIC50 (second compound 0.0316 µM) | pIC50 (second compound 0.316 µM) | pIC50 (second compound 1 µM) | pIC50 (second compound 10 µM)
7.48: pIC50 (second compound 3.16 µM)
inactive: viability, T/C [1] 49.5% | viability, T/C [2] 34.5% | viability, T/C [3] 14.3% | viability, T/C [4] 15.3% | viability, T/C [5] 14.6% | viability, T/C [6] 5.33% | viability, T/C [7] 52.7% | viability, T/C [8] 37% | viability, T/C [9] 18.8% | viability, T/C [10] 12.3% | viability, T/C [13] 46.8% | viability, T/C [14] 26.4% | viability, T/C [15] 14.6% | viability, T/C [16] 18.4% | viability, T/C [19] 42% | viability, T/C [20] 23.1% | viability, T/C [21] 20.9% | viability, T/C [22] 17% | viability, T/C [25] 51.6% | viability, T/C [26] 27.2% | viability, T/C [27] 23.2% | viability, T/C [28] 13.5% | viability, T/C [29] 12.7% | viability, T/C [30] 10.9% | viability, T/C [31] 47.1% | viability, T/C [32] 38.4% | viability, T/C [33] 18.7% | viability, T/C [34] 23% | viability, T/C [35] 9.14%

CCc1cc2c(N3CCc4c(cc(Cn5ccnc5)cc4-c4cn(C)nc4C(F)(F)F)C3=O)cc(C)nc2c(OC)n1 + Cc1cccc(N(C)C(=O)C2C(O)CCN2c2nc(C)cc(C(F)(F)F)c2C#N)c1
< 5.00: pIC50 (second compound 0.0316 µM) | pIC50 (second compound 0.1 µM) | pIC50 (second compound 0.316 µM) | pIC50 (second compound 3.16 µM) | pIC50 (second compound 10 µM)
inactive: viability, T/C [1] 74.7% | viability, T/C [2] 61.9% | viability, T/C [3] 94.6% | viability, T/C [4] 79.2% | viability, T/C [5] 68.4% | viability, T/C [6] 69.9% | viability, T/C [7] 73% | viability, T/C [8] 84.7% | viability, T/C [9] 90.7% | viability, T/C [10] 88.8% | viability, T/C [11] 90.5% | viability, T/C [12] 77.6% | viability, T/C [13] 63% | viability, T/C [14] 78.5% | viability, T/C [15] 60.2% | viability, T/C [16] 66.5% | viability, T/C [17] 61.3% | viability, T/C [18] 53.1% | viability, T/C [19] 106% | viability, T/C [20] 76.1% | viability, T/C [21] 78.8% | viability, T/C [22] 81.4% | viability, T/C [23] 69.6% | viability, T/C [24] 38% | viability, T/C [25] 76.5% | viability, T/C [26] 83.3% | viability, T/C [27] 60.4% | viability, T/C [28] 74.3% | viability, T/C [29] 66.8% | viability, T/C [30] 67.6% | viability, T/C [31] 76% | viability, T/C [32] 73.2% | viability, T/C [33] 68.1% | viability, T/C [34] 89.2% | viability, T/C [35] 73.8% | viability, T/C [36] 64.1%
5.21: pIC50 (second compound 1 µM)

COc1cc2cc(C(=O)CCC(=O)O)sc2cc1OC + Cc1cccc(N(C)C(=O)C2C(O)CCN2c2nc(C)cc(C(F)(F)F)c2C#N)c1
< 5.00: pIC50 (second compound 0.0316 µM) | pIC50 (second compound 0.1 µM) | pIC50 (second compound 0.316 µM) | pIC50 (second compound 1 µM) | pIC50 (second compound 3.16 µM) | pIC50 (second compound 10 µM)
inactive: viability, T/C [1] 79.5% | viability, T/C [2] 96.4% | viability, T/C [3] 130% | viability, T/C [4] 74.9% | viability, T/C [5] 91% | viability, T/C [6] 82.3% | viability, T/C [7] 116% | viability, T/C [8] 91.4% | viability, T/C [9] 102% | viability, T/C [10] 88.5% | viability, T/C [11] 98.8% | viability, T/C [12] 92.8% | viability, T/C [13] 67.7% | viability, T/C [14] 96.1% | viability, T/C [15] 70.5% | viability, T/C [16] 88.2% | viability, T/C [17] 79.7% | viability, T/C [18] 84.3% | viability, T/C [19] 67.6% | viability, T/C [20] 86.9% | viability, T/C [21] 72.9% | viability, T/C [22] 103% | viability, T/C [23] 72.3% | viability, T/C [24] 80.9% | viability, T/C [25] 120% | viability, T/C [26] 93.4% | viability, T/C [27] 101% | viability, T/C [28] 94.4% | viability, T/C [29] 110% | viability, T/C [30] 94.1% | viability, T/C [31] 97.6% | viability, T/C [32] 94.4% | viability, T/C [33] 92.9% | viability, T/C [34] 86.3% | viability, T/C [35] 87.8% | viability, T/C [36] 76.7%

O=C(Nc1ccc(O)c(NS(=O)(=O)c2ccc(F)cc2)c1)c1ccc(-c2ccccc2)cc1 + Cc1cccc(N(C)C(=O)C2C(O)CCN2c2nc(C)cc(C(F)(F)F)c2C#N)c1
< 5.00: pIC50 (second compound 0.1 µM)
5.25: pIC50 (second compound 1 µM)
5.03: pIC50 (second compound 0.0316 µM)
5.19: pIC50 (second compound 0.316 µM)
inactive: viability, T/C [1] 90.8% | viability, T/C [2] 98% | viability, T/C [3] 112% | viability, T/C [4] 126% | viability, T/C [5] 92.9% | viability, T/C [6] 47.3% | viability, T/C [7] 108% | viability, T/C [8] 87.9% | viability, T/C [9] 118% | viability, T/C [10] 65% | viability, T/C [11] 61.3% | viability, T/C [12] 39.4% | viability, T/C [13] 84.1% | viability, T/C [14] 109% | viability, T/C [15] 91.4% | viability, T/C [16] 121% | viability, T/C [17] 74.8% | viability, T/C [18] 35.2% | viability, T/C [19] 87.7% | viability, T/C [20] 95.4% | viability, T/C [21] 81.2% | viability, T/C [22] 105% | viability, T/C [23] 61.9% | viability, T/C [24] 37.9% | viability, T/C [25] 73.5% | viability, T/C [26] 59.4% | viability, T/C [27] 90.2% | viability, T/C [28] 73% | viability, T/C [29] 81.3% | viability, T/C [30] 28.3% | viability, T/C [31] 85.5% | viability, T/C [32] 81.3% | viability, T/C [33] 95.8% | viability, T/C [34] 81.3% | viability, T/C [35] 48.4% | viability, T/C [36] 26.8%
5.23: pIC50 (second compound 3.16 µM)
5.53: pIC50 (second compound 10 µM)
